Reference: patent US20210145768A1, “MODULATING IMMUNE RESPONSE VIA TARGETING OF OLFACTORY RECEPTOR ACTIVITY” (La Jolla Institute for Allergy and Immunology, priority 2018, published 2021)

Target: T1, Olfr2 (Mus musculus, UniProt Q9QWU6)
T1 sequence (Q9QWU6 1-327): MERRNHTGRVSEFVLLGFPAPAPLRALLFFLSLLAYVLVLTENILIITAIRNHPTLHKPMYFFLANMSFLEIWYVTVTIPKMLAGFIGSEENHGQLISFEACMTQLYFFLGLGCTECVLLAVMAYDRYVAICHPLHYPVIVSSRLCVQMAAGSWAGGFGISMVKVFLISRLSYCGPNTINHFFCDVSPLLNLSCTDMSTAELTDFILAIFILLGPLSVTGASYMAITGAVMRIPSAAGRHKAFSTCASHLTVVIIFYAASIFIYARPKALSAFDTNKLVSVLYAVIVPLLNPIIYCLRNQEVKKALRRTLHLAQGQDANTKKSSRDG
Assay: Intracellular TNF staining in vascular macrophages and blood monocytes (flow cytometry)
Type: cell-based
Design: Olfr2 expression was confirmed at the protein level on F4/80^+ vascular macrophages; from tissue; host or cells: explanted whole aortas, digested aortic cell suspensions (F4/80+ vascular macrophages) and blood monocytes of Apoe-/- C57BL/6J mice; living Apoe-/- mice for the in vivo study
Details: octanal
Procedure: To assess the functional properties of Olfr2 in monocytes, cells were enriched form Apoe−/− mice blood by the negative selection. Purified monocytes were then incubated as described above. TNF expression (TNF-PE) was evaluate by intracellular staining protocol by flow cytometry. Classical and non-classical monocytes were divided as previously described (Live, CD115+, LyC6+, and LyC6− respectively). […] Data are presented as means±SEM. *p<0.05, **p<0.01, ***p<0.005, ****p<0.001. p calculated by One-Way ANOVA test, Tukey's multiple comparisons test.
Whole aortas and mouse blood leukocytes were incubated in culture medium with Oct, (10 μM), LPS, (500 ng/mL) alone or combined (LPS+Oct) for 12h at 37° C. and 5% CO2. The protein transport inhibitor cocktail 1× (eBioscience) was added for whole 12h in the whole aorta samples and for the last 6 hours in the mouse blood leukocyte samples. […]
Cells were then washed, fixed, permeabilized applying the Intracellular Fixation and Permeabilization Buffer Set (eBioscience), and stained with mouse anti-TNF-PE (eBioscience). Samples were analyzed with LSR-II (BD Biosciences). Data was acquired with FACSDiva software (BD Biosciences) and analyzed with FlowJo software (Treestar Inc).

Compound: CCCCCCCC=O [octanal]
- TNF expression in Ly6C+ and Ly6C− blood monocytes: boosted
